Our source for the IC50 and DC50 values is patent US20260355196A1, “INHIBITORS AND DEGRADERS OF PIP4K PROTEIN” (Larkspur Biosciences, Inc., priority 2023, published 2026).

The target in one test is T1, PIP4K2C (Homo sapiens, UniProt Q8TBX8).
T1 sequence (Q8TBX8 1-421): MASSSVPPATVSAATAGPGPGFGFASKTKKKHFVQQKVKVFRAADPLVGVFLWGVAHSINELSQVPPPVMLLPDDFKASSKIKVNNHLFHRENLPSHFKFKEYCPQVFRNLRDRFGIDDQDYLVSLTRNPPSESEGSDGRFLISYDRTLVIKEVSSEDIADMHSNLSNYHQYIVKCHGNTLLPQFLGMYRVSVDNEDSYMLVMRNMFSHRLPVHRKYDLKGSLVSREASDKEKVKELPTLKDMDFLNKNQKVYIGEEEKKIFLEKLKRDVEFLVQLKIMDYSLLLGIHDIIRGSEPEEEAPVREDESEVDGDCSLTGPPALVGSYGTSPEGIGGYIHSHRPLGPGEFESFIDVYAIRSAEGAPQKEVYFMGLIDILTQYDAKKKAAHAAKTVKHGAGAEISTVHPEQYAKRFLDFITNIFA
Kind of test: Enzyme Binding Assay (KINOMEscan): active site-directed competition binding to an immobilized ligand. Further details: purchased Eurofins DiscoverX, San Diego, CA 87-0007-1094. Conditions: 11-point dose response, duplicate, top concentration 5 micromolar; read-out: Pip4k2c Kd: IC50. The protocol:
Example B-1: Enzyme Binding Assays (KINOMEscan)
PIP4K2C binding constants disclosed herein were determined using the proprietary Human PIP4K2C binding assay (Catalog number 87-0007-1094, Eurofins DiscoverX, San Diego, CA). This assay measures active site-directed competition binding to an immobilized ligand (see https://doi.org/10.1038/nbt1068, herein incorporated by reference in its entirety). Experiments were conducted using an 11-point dose response curve, in duplicate, with a top starting concentration of 5 micromolar; the Levenberg-Marquardt algorithm was used to fit a Hill equation to dose-response data to calculate IC50 values (see Table 5).
On to `CNC(=O)[C@H]1CC[C@H](Nc2ncc(Cl)c(-c3cccc(-c4ccc[nH]c4=O)c3)n2)CC1` [Compound 155, trans-(1r,4r)-4-((5-chloro-4-(3-(2-oxo-1,2-dihydropyridin-3-yl)phenyl)pyrimidin-2-yl)amino)-N-methylcyclohexane-1-carboxamide], for which the IC50 was under 500 nM.

Regarding `CC(=O)N[C@H]1CC[C@H](Nc2ncc(F)c(-c3cccc(-n4cc(C)ccc4=O)c3)n2)CC1` [Compound 235, trans-N-(4-((5-fluoro-4-(3-(5-methyl-2-oxopyridin-1 (2H)-yl)phenyl)pyrimidin-2-yl)amino)cyclohexyl)acetamide], the IC50 was under 500 nM.

For `NC(=O)[C@H]1CCC[C@@H](Nc2ncc(F)c(-c3cccc(-c4ccc(=O)[nH]c4)c3)n2)C1` (racemic) [Compound 201, cis-3-((5-fluoro-4-(3-(6-oxo-1,6-dihydropyridin-3-yl)phenyl)pyrimidin-2-yl)amino)cyclohexane-1-carboxamide], the IC50 is under 500 nM.

As for `CNC(=O)[C@H]1C[C@@H](Nc2ncc(Cl)c(-c3cccc(-c4ccc(F)cc4)n3)n2)C1` [Compound 115, cis-3-((5-chloro-4-(6-(4-fluorophenyl)pyridin-2-yl)pyrimidin-2-yl)amino)-N-methylcyclobutane-1-carboxamide], the IC50 is under 500 nM.

As to `NC(=O)[C@@H]1CCC[C@H](Nc2ncc(F)c(-c3cccc(N4CCCC4)c3)n2)C1` (relative stereo) [Compound 36, cis-3-((5-fluoro-4-(3-(pyrrolidin-1-yl)phenyl)pyrimidin-2-yl)amino)cyclohexane-1-carboxamide], the IC50 is under 500 nM.

In the case of `CNC(=O)[C@H]1CC[C@@H](Nc2ncc(Cl)c(-c3cnn(-c4ccc(=O)[nH]c4)c3)n2)CC1` [Compound 163, cis-(1s,4s)-4-((5-chloro-4-(1-(6-oxo-1,6-dihydropyridin-3-yl)-1H-pyrazol-4-yl)pyrimidin-2-yl)amino)-N-methylcyclohexane-1-carboxamide], the IC50 fell in the range of 500 to 1000 nM.

The target of the next test is T1, PIP4K2C. Kind of test: HiBiT PIP4K2C degradation assay in MOLT-4 cells (endogenous PIP4K2C C-terminally tagged with HiBiT). The format is cell-based. Further details: untagged in primary human PBMCs and monocyte-derived dendritic cells. Conditions: 6 hours of incubation time, rather than 24 hours; MOLT-4, top concentration 10 micromolar; read-out: HiBIT-degradation MOLT4 PIP4k2C DC50 (6 hours, marked *). The procedure, abridged: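 Endogenous PIP4K2C was C-terminally HiBiT-tagged by CRISPR-Cas9 in MOLT-4 cells, which were treated with a 10-point, 3-fold dilution series from 10 micromolar in duplicate for 24 or 6 hours at 37 C. Remaining protein was read by HiBiT lytic luminescence, and DC50 came from a Hill fit.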
In the case of `O=C1CC[C@@H](Nc2ccc(N3CCN([C@H]4CC[C@H](C(=O)N[C@H]5CC[C@H](Nc6ncc(F)c(-c7cccc(-n8ccccc8=O)c7)n6)CC5)CC4)CC3)c(F)c2)C(=O)N1` (single isomer, unassigned) [Compound 602], the 50% degradation concentration (DC50) was under 500 nM.

For the molecule `O=C1CC[C@H](Nc2ccc(N3CCN([C@H]4CC[C@H](NC(=O)[C@H]5CC[C@H](Nc6ncc(F)c(-c7cccc(-n8ccccc8=O)c7)n6)CC5)CC4)CC3)c(F)c2)C(=O)N1` (single isomer, unassigned) [Compound 436], the DC50 was under 500 nM.

With `O=C1CCC(Nc2ccc(C3CCN(C[C@H]4CC[C@H](C(=O)N5CCC(Nc6ncc(F)c(-c7cccc(N8CCCCC8=O)c7)n6)CC5)CC4)CC3)c(F)c2)C(=O)N1` (stereo partly drawn) [Compound 685, 3-((3-fluoro-4-(1-((trans-4-(4-((5-fluoro-4-(3-(2-oxopiperidin-1-yl)phenyl)pyrimidin-2-yl)amino)piperidine-1-carbonyl)cyclohexyl)methyl)piperidin-4-yl)phenyl)amino)piperidine-2,6-dione], the DC50 is under 500 nM.

On to `Cc1ccn(-c2cccc(-c3nc(N[C@H]4CC[C@H](C(=O)N5CCC(CN6CCN(c7ccc(NC8CCC(=O)NC8=O)cc7F)CC6)CC5)CC4)ncc3F)c2)c(=O)c1` (stereo partly drawn) [Compound 471, trans-3-((3-fluoro-4-(4-((1-(4-((5-fluoro-4-(3-(4-methyl-2-oxopyridin-1 (2H)-yl)phenyl)pyrimidin-2-yl)amino)cyclohexane-1-carbonyl)piperidin-4-yl)methyl)piperazin-1-yl)phenyl)amino)piperidine-2,6-dione], for which the DC50 was under 500 nM.

For the molecule `O=C1CCC(Nc2ccc(C3CCN(CCC4CCN(C(=O)O[C@H]5CC[C@H](Nc6ncc(F)c(-c7cccc(-n8ccccc8=O)c7)n6)CC5)CC4)CC3)c(F)c2)C(=O)N1` (stereo partly drawn) [Compound 697, trans-4-((5-fluoro-4-(3-(2-oxopyridin-1 (2H)-yl)phenyl)pyrimidin-2-yl)amino)cyclohexyl 4-(2-(4-(4-((2,6-dioxopiperidin-3-yl)amino)-2-fluorophenyl)piperidin-1-yl)ethyl)piperidine-1-carboxylate], the DC50 was under 500 nM.

For the molecule `O=C1CCC(Nc2ccc(N3CCN(C4CCN(C(=O)O[C@H]5CC[C@H](Nc6ncc(F)c(-c7cccc(N8CCCOC8=O)c7)n6)CC5)CC4)CC3)c(F)c2)C(=O)N1` (stereo partly drawn) [Compound 674, trans-4-((5-fluoro-4-(3-(2-oxo-1,3-oxazinan-3-yl)phenyl)pyrimidin-2-yl)amino)cyclohexyl 4-(4-(4-((2,6-dioxopiperidin-3-yl)amino)-2-fluorophenyl)piperazin-1-yl)piperidine-1-carboxylate], the DC50 was under 500 nM.

For the molecule `Cn1nc(C2CCC(=O)NC2=O)c2ccc(N3CCN([C@H]4CC[C@H](C(=O)N[C@H]5CC[C@H](Nc6ncc(F)c(-c7cccc(-c8ccc[nH]c8=O)c7)n6)CC5)CC4)CC3)cc21` (stereo partly drawn) [Compound 389, trans-(1r,4R)-4-(4-(3-(2,6-dioxopiperidin-3-yl)-1-methyl-1H-indazol-6-yl)piperazin-1-yl)-N-((1r,4R)-4-((5-fluoro-4-(3-(2-oxo-1,2-dihydropyridin-3-yl)phenyl)pyrimidin-2-yl)amino)cyclohexyl)cyclohexane-1-carboxamide], the DC50 is under 500 nM.

As for `O=C1CCC(Nc2ccc(C3CCN(CC4CCN(C(=O)[C@H]5CC[C@H](Nc6ncc(F)c(-c7cccc(-c8ccc[nH]c8=O)c7)n6)CC5)CC4)CC3(F)F)c(F)c2)C(=O)N1` (stereo partly drawn) [Compound 408, trans-3-[4-[3,3-difluoro-1-[[1-[4-[[5-fluoro-4-[3-(2-oxo-1H-pyridin-3-yl)phenyl]pyrimidin-2-yl]amino]cyclohexanecarbonyl]-4-piperidyl]methyl]-4-piperidyl]-3-fluoro-anilino]piperidine-2,6-dione], the half-maximal degradation concentration (DC50) was under 500 nM.

With `O=C1CCC(Nc2ccc(C3CCN(C(=O)C4CCN(C(=O)[C@H]5CC[C@H](Nc6ncc(F)c(-c7cccc(-n8ccccc8=O)c7)n6)CC5)CC4)CC3)c(F)c2)C(=O)N1` (stereo partly drawn) [Compound 669, trans-3-((3-fluoro-4-(1-(1-(4-((5-fluoro-4-(3-(2-oxopyridin-1 (2H)-yl)phenyl)pyrimidin-2-yl)amino)cyclohexane-1-carbonyl)piperidine-4-carbonyl)piperidin-4-yl)phenyl)amino)piperidine-2,6-dione], the DC50 was under 500 nM.

With `O=C1CCC(Nc2ccc(N3CCC(CC4CCN(C(=O)[C@H]5CC[C@H](Nc6ncc(F)c(-c7cccc(N8CCCCC8=O)c7)n6)CC5)CC4)CC3)c(F)c2)C(=O)N1` (stereo partly drawn) [Compound 414, trans-3-((3-fluoro-4-(4-((1-(-4-((5-fluoro-4-(3-(2-oxopiperidin-1-yl)phenyl)pyrimidin-2-yl)amino)cyclohexane-1-carbonyl)piperidin-4-yl)methyl)piperidin-1-yl)phenyl)amino)piperidine-2,6-dione], the DC50 was under 500 nM.

Staying with this test, now noted: 24 hours incubation, MOLT-4, top concentration 10 micromolar; read-out: HiBIT-degradation MOLT4 PIP4k2C 24 hours DC50.
Regarding `O=C1CCC(N2Cc3cc(OC4CCN(CCC5CCN(C(=O)[C@H]6CCC[C@@H](Nc7ncc(Cl)c(-c8cccc(-c9ccccc9)c8)n7)C6)CC5)CC4)ccc3C2=O)C(=O)N1` (relative stereo) [Compound 79, cis-3-(5-((1-(2-(1-(3-((4-([1,1′-biphenyl]-3-yl)-5-chloropyrimidin-2-yl)amino)cyclohexane-1-carbonyl)piperidin-4-yl)ethyl)piperidin-4-yl)oxy)-1-oxoisoindolin-2-yl)piperidine-2,6-dione], the DC50 was under 500 nM.

A word on the IC50: it is the concentration at which inhibition is half-maximal. For orientation: DC50 means the concentration giving 50% degradation.
